Laboratory results taken from patent publication US7345051B2, “Mucin synthesis inhibitors” (Genaera Corporation, priority 2000, dated 2008).
Entries after “also recorded” stand apart in the source; their conditions may differ.

What was measured:
[1] = test system: H292 clone 15 cells; conditions: 48 hours compound, Alamar Blue 2 hours; Average of 3 experiments
[2] = test system: MUC5AC production by H292 clone 15 cells overexpressing hCLCA1; test: ELLA of MUC5AC in conditioned media of H292 clone 15 cells; format: cell-based, human; conditions: Average of 3 experiments
Method: Conditioned media were collected and MUC5AC (the major secretory mucin in lungs) content was determined by ELLA measurement as described below. 96 well microtiter plates were coated with a mouse monoclonal antibody against human MUC5AC (1-13M1, NeoMarkers), then incubated with test conditioned media. Bound MUC5AC was detected by horseradish peroxidase-conjugated soybean lectin which has a high affinity towards highly-glycosylated proteins such as MUC5AC. Conversion of peroxidase substrate TMB (Tetramethylbenzidine Base) was quantified by reading at 450 nm. O.D. (optical density) readings were plotted against concentrations of compounds.

[3] = test system: activated Caco2 cells; conditions: Caco-2
[4] = test system: MUC5A/C secretion in hCLCA1 expressing H292 cells; test: MUC5A/C secretion in hCLCA1 expressing H292 cells (ELLA); format: cell-based, human; design: key to ELLA: + = inhibition; − = no inhibition; conditions: for ELLA: Table 2, mucin production
[5] = test system: Muc5b; test: Inhibition of Muc5b expression; format: cell-based; design: key: + = inhibition; − = no inhibition; conditions: Table 2
Method: The effects of talniflumate derivatives on mucin production were also assayed for changes in ELLA and IC50 (Table 2) as described in the methods above.

[6] = test system: NCI-H292/hICACC-1 (AAF 15) cells; test: AB/PAS staining of mucous glycoconjugates in NCI-H292 cells over-expressing hICACC-1; format: cell-based, human; conditions: 3 days
Method: NCI-H292 cells, a human pulmonary mucoepidermoid carcinoma cell line, were purchased from the American Type Culture Collection (Manassas Va.) and cultured in RPMI1640 medium supplemented with 10% FBS and 1% penicillin/streptomycin (Gibco/BRL). The cells were grown in a humidified, air-containing incubator, supplemented with 5% CO2 at 37° C. Stable NCI-H292 cell lines over-expressing hICACC-1 were established by transfection of pcDNA3-hICACC-1 using a Fujin Transfection kit according to the manufacture's instruction (Boehringer-Mannheim). A control cell line was produced, NCI-H292/ctl, by the transfection of pcDNA3 (ctl) into the NCI-H292 cell line using the same procedure. Expression of the hICACC-1 gene was confirmed for the pcDNA3-hICACC-1 transfectent by Northern analysis.
For the determination of mucous glycoconjugate production, NCI-H292/ctl and NCI-H292/hICACC-1 (AAF 15) cells were cultured in 24-well plates for 3 days. Cells were then fixed with Formalin and mucous glycoconjugates were visualized by AB/PAS staining (Sigma). […] For chloride channel blockage studies, cells were cultured in the presence of niflumic acid (NFA) (Sigma) at 100 μM concentration, mefanamic acid (MFA) at 125 or 250 μM or talniflumate at 12.5, 25 or 50 μM, or media alone.

[7] = test system: IL9 transgenic mice; test: Mucin production in lungs of IL9 transgenic mice, intra-tracheal treatment; format: in vivo; conditions: NFA (100 μg) IT once daily for three days
Method: Certified virus-free male and female IL9 transgenic mice (IL9TG5-FVB/N) 5-6 weeks of age were bred in our laboratories. Male and female FVB/N mice 5-6 weeks of age were purchased from Jackson Laboratories (Bar Harbor Me.). Animals were housed in high-efficiency, particulate filtered air and allowed free access to food and water for 3 to 7 days prior to experimental manipulation. The animal facilities were maintained at 22° C. and the light:dark cycle was automatically controlled (10:14 hour light:dark).
Animals were phenotyped, naïve, or 24 hrs after receiving intra-tracheal (IT) shame (vehicle) treatment, or drugs in the same vehicle as was used in identically treated controls. Mice were treated IT once daily for three days. NFA (100 μg) or antibody to IL-9 were administered in PBS IT. […] The up-regulation of mucus production in the IL9 transgenic is specifically associated with increased steady-state mRNA levels of MUC2 and MUC5AC as shown by RT-PCR (FIG. 9).

[8] = test system: mice sensitized by nasal aspiration of Aspergillus fumigatus antigen; format: in vivo
[9] = test system: activated Caco2 cell line; test: Viability of activated Caco2 cells treated with NFA; format: cell-based; conditions: even higher concentrations of NFA
[10] = test system: activated LHL4 cells; test: Eotaxin production by activated LHL4 cells (ELISA); format: cell-based; conditions: increasing concentrations
Method: Activated LHL4 cells that express and secrete eotaxin have been produced and used to test for inhibitors of eotaxin production. These cells were assayed in vitro for eotaxin by an ELISA technique well known in the art (R&D Systems).

[11] = test system: human chloride channel hICACC-1; test: Patch clamp chloride current, NCI-H292 cell expressing hICACC-1; format: cell-based; conditions: 5 micromolar talniflumate; 2 μM ionomycin and 2 mM calcium
Method: An NCI-H292 cell transfected with a plasmid expressing the human chloride channel hICACC-1 was patch clamped and chloride current (I) was measured over a range of voltages (V). Substantial chloride current was invoked by the addition of 2 μM ionomycin and 2 mM calcium (circles) compared to baseline (squares), indicating activation of hICACC-1.

[12] = test system: MUC2 transcription; test: MUC2 promoter luciferase reporter, lipoteichoic acid induction; format: cell-based; conditions: LTA from S. aureus; FIG. 22
Method: MUC2 transcription was monitored as described in Li et al. (1998) Proc. Natl. Acad. Sci., USA, Vol. 95, pp. 5718-5723. Briefly, an epithelial cell line was transfected with a reporter construct containing the promoter region from the MUC2 gene cloned upstream of a luciferase reporter gene. Transfected cells were treated with serum free media (SFM) alone or, as indicated, containing lipoteichoic acid from S. aureus bacteria (LTA), adenosine (aden), or talniflumate (MSI). Cells were then lysed and luciferase enzyme activity in the lysates was measured (RLU). Talniflumate modulated the lipoteichoic acid induction of MUC2 (see FIG. 22). This is also an appropriate model for CF.

[13] = test system: B6D2F1 mice sensitized with Aspergillus fumigatus; test: Murine asthma model, Aspergillus fumigatus sensitization, Talniflumate containing mouse chow; format: in vivo; conditions: oral
[14] = test system: CF mice (CF knock-out mice and CF ΔF508 mice); conditions: po, 100 mg/kg
[15] = target: T1, murine chloride channel, mICACC-1 (Mus musculus, UniProt Q9D7Z6); test: Patch clamp chloride current, HEK293 cell expressing mICACC-1; format: cell-based; conditions: for Chloride Current (nA/pF): + ionomycin + Ca
T1 construct: expressed in transfected cells; host or cells: HEK293
T1 sequence (Q9D7Z6 22-913): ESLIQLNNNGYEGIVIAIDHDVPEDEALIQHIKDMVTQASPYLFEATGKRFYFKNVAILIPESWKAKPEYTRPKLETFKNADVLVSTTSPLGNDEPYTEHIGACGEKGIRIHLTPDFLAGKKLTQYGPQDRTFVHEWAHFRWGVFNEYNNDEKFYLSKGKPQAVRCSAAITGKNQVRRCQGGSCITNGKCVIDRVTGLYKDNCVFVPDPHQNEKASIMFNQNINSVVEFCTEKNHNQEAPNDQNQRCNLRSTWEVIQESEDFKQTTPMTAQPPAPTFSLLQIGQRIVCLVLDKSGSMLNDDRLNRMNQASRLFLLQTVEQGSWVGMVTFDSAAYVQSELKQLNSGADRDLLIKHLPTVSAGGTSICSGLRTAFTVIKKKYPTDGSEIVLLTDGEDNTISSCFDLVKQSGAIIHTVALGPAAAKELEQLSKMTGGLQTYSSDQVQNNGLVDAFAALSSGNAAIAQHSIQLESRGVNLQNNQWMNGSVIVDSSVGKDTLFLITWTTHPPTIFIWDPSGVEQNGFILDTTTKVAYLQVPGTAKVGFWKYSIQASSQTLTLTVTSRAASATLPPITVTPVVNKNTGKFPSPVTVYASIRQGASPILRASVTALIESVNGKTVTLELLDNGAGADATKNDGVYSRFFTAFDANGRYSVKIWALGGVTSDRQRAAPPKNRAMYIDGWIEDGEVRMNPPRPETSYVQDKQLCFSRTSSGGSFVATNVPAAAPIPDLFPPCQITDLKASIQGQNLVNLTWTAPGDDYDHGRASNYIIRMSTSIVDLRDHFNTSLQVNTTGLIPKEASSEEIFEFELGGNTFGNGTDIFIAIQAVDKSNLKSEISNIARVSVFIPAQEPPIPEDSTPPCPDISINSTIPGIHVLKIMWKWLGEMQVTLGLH
Method: A HEK293 cell transfected with a plasmid expressing a murine chloride channel, mICACC-1, was patch clamped and chloride current was measured over a range of voltages (V, left column) and the results are shown in Table 3 below. Each row lists currents invoked at a particular positive voltage in the absence (−) or presence (+) of ionomycin and calcium, and in the presence of an indicated concentration of diclofenac (μM). Substantial current was invoked by the addition of 2 μM ionomycin and 2 mM calcium-compare the first two columns-indicating activation of mICACC-1 by the ionomycin/calcium treatment. For example, at 100 mV of positive voltage, the chloride current was increased from 39 nA/pF to 105 nA/pF.

O=C1OC(CC(=O)c2cccnc2Oc2cccc(Br)c2)c2ccccc21 (stereo not drawn) [Compound 14]
Est. LD50 (μM)(alamar Blue)* [1]: 16 µM

O=C1OC(CC(=O)c2cccnc2Sc2ccccc2Cl)c2ccccc21 (stereo not drawn) [Compound 15]
IC50 ([2]; Homo sapiens, NCI-H292, 48 hours): 2.5 µM | Est. LD50 (μM)(alamar Blue)* [1]: 15 µM

O=C(O)c1ccccc1Nc1cccc(C(F)(F)F)c1 [Flufenamate]
Mucin production by activated Caco2 cells [3]: inhibited

COC(=O)c1cccnc1Nc1cccc(C(F)(F)F)c1 [MSI 2213, Niflumic acid methyl ester]
ELLA [4]: −

O=C1OC(CC(=O)c2cccnc2Nc2cccc(C(F)(F)F)c2)c2ccccc21 (stereo not drawn) [MSI 2216]
IC50 ([2]; 48 hours): 3 µM | Est. LD50 (μM)(alamar Blue)* [1]: 32 µM | Inhibition of Muc5b Expression [5]: + | IC50 ([4]; Table 2, ELLA): 5000 nM | ELLA [4]: +

Cc1ccc(Cl)c(Nc2ccccc2C(=O)O)c1Cl [Meclofenamate]
Mucin production by activated Caco2 cells [3]: partially

Cc1cccc(Nc2ccccc2C(=O)O)c1C [Mefenamate]
Mucin production by activated Caco2 cells [3]: partially | PAS positive staining muco-glycoconjugates compared with untreated cells ([6]; MFA at 125 or 250 μM): significantly fewer positive staining muco-glycoconjugates

O=C(O)c1cccnc1Nc1cccc(C(F)(F)F)c1 [NFA, niflumic acid]
mucin production in the IL9 transgenic lungs [7]: decreased mucin production | serum IgE levels ([8]; 100 μg of NFA intra-tracheal, days 0-21, vs PBS): no effect | BAL lung eosinophilia ([8]; mouse, in vivo): suppress; also recorded: reduces antigen-induced lung eosinophilia in vivo | antigen-induced airway hyperresponsiveness ([8]; mouse, in vivo): suppress; also recorded: suppresses antigen-induced airway hyperresponsiveness | viability [9]: not affected; also recorded: did not effect their viability | eotaxin production [10]: Significant inhibition; also recorded: blocks epithelial activation including chemokine production | PAS positive staining muco-glycoconjugates compared with untreated cells ([6]; NFA at 100 μM): significantly fewer positive staining muco-glycoconjugates

COc1ccc2cc([C@H](C)C(=O)O)ccc2c1 [Naproxen]
Mucin production by activated Caco2 cells [3]: ineffective

CC1=C(CC(=O)O)c2cc(F)ccc2/C1=C\c1ccc([S+](C)[O-])cc1 (stereo not drawn) [Sulindac]
Mucin production by activated Caco2 cells [3]: ineffective

O=C1OC(OC(=O)c2cccnc2Nc2cccc(C(F)(F)F)c2)c2ccccc21 (stereo not drawn) [Talniflumate, talniflumate]
chloride current at positive voltage [11]: reduction in chloride current | lipoteichoic acid induction of MUC2 (luciferase, RLU) [12]: modulated | Est. LD50 (μM)(alamar Blue)* [1]: 108 µM | PAS positive staining muco-glycoconjugates compared with untreated cells ([6]; talniflumate at 12.5, 25 or 50 μM): significantly fewer positive staining muco-glycoconjugates | lung eosinophilia, number of eosinophilic cells by bronchoalveolar lavage ([13]; Talniflumate coated chow, sensitized mice vs standard chow): reduced the number of eosinophilic cells; also recorded: inhibition of lung eosinophilia | mucin staining (PAS) in lung ([13]; Talniflumate containing chow ad lib, Asp-sens mice vs regular chow): reduced mucin staining; also recorded: inhibition of mucin over production | body weight gained [14]: 8-12%

O=C(O)Cc1ccccc1Nc1c(Cl)cccc1Cl [diclofenac]
Chloride Current (nA/pF) ([15]; 0 mV, diclofenac 5 μM): 20 nA/pF | Chloride Current (nA/pF) ([15]; 0 mV, diclofenac 20 μM): 20 nA/pF | Chloride Current (nA/pF) ([15]; 0 mV, diclofenac 50 μM): 19 nA/pF | Chloride Current (nA/pF) ([15]; 20 mV, diclofenac 5 μM): 36 nA/pF | Chloride Current (nA/pF) ([15]; 20 mV, diclofenac 20 μM): 34 nA/pF | Chloride Current (nA/pF) ([15]; 20 mV, diclofenac 50 μM): 33 nA/pF | Chloride Current (nA/pF) ([15]; 40 mV, diclofenac 5 μM): 53 nA/pF | Chloride Current (nA/pF) ([15]; 40 mV, diclofenac 20 μM): 51 nA/pF | Chloride Current (nA/pF) ([15]; 40 mV, diclofenac 50 μM): 48 nA/pF | Chloride Current (nA/pF) ([15]; 60 mV, diclofenac 5 μM): 72 nA/pF | Chloride Current (nA/pF) ([15]; 60 mV, diclofenac 20 μM): 69 nA/pF | Chloride Current (nA/pF) ([15]; 60 mV, diclofenac 50 μM): 66 nA/pF | Chloride Current (nA/pF) ([15]; 80 mV, diclofenac 5 μM): 92 nA/pF | Chloride Current (nA/pF) ([15]; 80 mV, diclofenac 20 μM): 88 nA/pF | Chloride Current (nA/pF) ([15]; 80 mV, diclofenac 50 μM): 85 nA/pF | Chloride Current (nA/pF) ([15]; 100 mV, diclofenac 5 μM): 115 nA/pF | Chloride Current (nA/pF) ([15]; 100 mV, diclofenac 20 μM): 109 nA/pF | Chloride Current (nA/pF) ([15]; 100 mV, diclofenac 50 μM): 106 nA/pF | inhibition of channel activity ([15]; diclofenac 5 μM to 50 μM, 2 μM ionomycin and 2 mM calcium): No inhibition
